Results from patent US9289400B2, “D3 dopamine receptor agonists to treat dyskinesia in parkinson's disease” (priority 2010, dated 2016).
pEC50: −log10 of the molar value. Values joined by “and” are separate entries in the source; they are usually repeats but may differ in a detail not shown here. Equal values may be shown once. Marks after values point to notes of the source that are not given here.

Columns and labels:
Assay type in all cases: cell-based
D3 dopamine receptor [1] = biological target: T1, D3 dopamine receptor (Homo sapiens (Human), UniProt P35462); experiment: Adenylyl cyclase inhibition (forskolin-induced cAMP) in AtT-20 cells stably expressing D3; conditions: for Adenylyl cyclase inhibition: agonist type: versus full agonist quinpirole
T1 sequence (P35462 other isoform, or with tags, fused parts or gaps): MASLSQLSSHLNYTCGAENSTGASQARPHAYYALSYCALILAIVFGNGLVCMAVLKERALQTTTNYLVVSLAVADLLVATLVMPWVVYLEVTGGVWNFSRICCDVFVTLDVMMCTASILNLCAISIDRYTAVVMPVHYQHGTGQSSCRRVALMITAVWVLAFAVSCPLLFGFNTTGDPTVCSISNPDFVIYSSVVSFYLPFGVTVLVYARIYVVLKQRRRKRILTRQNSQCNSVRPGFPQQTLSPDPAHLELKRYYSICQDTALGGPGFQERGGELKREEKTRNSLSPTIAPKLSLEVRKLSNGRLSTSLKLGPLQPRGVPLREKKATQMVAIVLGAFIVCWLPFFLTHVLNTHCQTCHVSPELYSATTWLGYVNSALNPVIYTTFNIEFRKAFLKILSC
Method: In the second functional assay, the ability of D2-like dopamine receptors to inhibit adenylyl cyclase activity is assessed. The ability of the lead compound to dose-dependently decrease forskolin-induced cAMP levels is measured. The IC50 values for each receptor subtype is determined by fitting the data points using the Hill equation. Previously, the EC50 and IC50 values for dopamine and quinpirole has been determined in these cell lines in both functional assays.
(§1) AtT-20 mouse pituitary cells were grown in Ham's F10 medium with 5% FBS, 10% heat-inactivated horse serum, 2 mM glutamine and 50 μg/ml gentamicin (Invitrogen, Carlsbad, Calif.). AtT-20 cells stabling expressing the human D2S, D2L, D3, and D4.2 and receptor were maintained in the above F10 culture media supplemented with 500 μg/ml G418 (Invitrogen). For electrophysiological characterization, cells were plated onto glass coverslips coated with 40 μg/ml poly L-lysine (Sigma-Aldrich). The generation and characterization of the AtT-20 cells stably expressing various human dopamine receptors have been previously reported (Kuzhikandathil & Oxford, 2000, J. Gen. Physiol. 115:697-706; Kuzhikandathil et al., 1998, Mol. Cell. Neurosci. 12:390-402; Kuzhikandathil & Bartoszyk, 2006, Neuropharm. 51:873-884; Westrich & Kuzhikandathil, 2007, Biochim. Biophys. Acta-MCR 1773:1747-1758; Kuzhikandathil et al., 2004, Mol. Cell. Neurosci. 26:144-155; Westrich et al., 2010, Biochem. Pharmacol. 79:897-907).
Cyclic AMP (cAMP) levels were assessed using the cAMP Biotrak Enzymeimmunoassay (EIA) kit (GE Healthcare, Piscataway, N.J., USA) as described previously (Kuzhikandathil & Bartoszyk, 2006, Neuropharm. 51:873-884). The cAMP levels in each treated sample were assayed in triplicate and the entire experiment repeated three independent times.
(§2) To compare the functional effects of the new class of D3 receptor agonists, PBZI (Table 2) and ES609 (Table 3) were tested on AtT-20 cells stably expressing human D3, D2S, D2L or D4.2. Functional efficacy was determined by assessing the ability of PBZI and ES609 to inhibit adenylyl cyclase or activate GIRK channels coupled to these “D2-like” dopamine receptors. The EC50 values of PBZI and ES609 for inhibiting adenylyl cyclase and activating GIRK channels were in the range of 0.2 nM to 30 nM for D3 receptors.

D2L dopamine receptor = D2L dopamine receptor (Homo sapiens (Human), UniProt P14416); experiment: GIRK channel activation, whole cell voltage clamp, AtT-20 cells stably expressing D2L; conditions: for GIRK channel activation: agonist type: versus full agonist quinpirole
D2L dopamine receptor, sequence (P14416 whole entry): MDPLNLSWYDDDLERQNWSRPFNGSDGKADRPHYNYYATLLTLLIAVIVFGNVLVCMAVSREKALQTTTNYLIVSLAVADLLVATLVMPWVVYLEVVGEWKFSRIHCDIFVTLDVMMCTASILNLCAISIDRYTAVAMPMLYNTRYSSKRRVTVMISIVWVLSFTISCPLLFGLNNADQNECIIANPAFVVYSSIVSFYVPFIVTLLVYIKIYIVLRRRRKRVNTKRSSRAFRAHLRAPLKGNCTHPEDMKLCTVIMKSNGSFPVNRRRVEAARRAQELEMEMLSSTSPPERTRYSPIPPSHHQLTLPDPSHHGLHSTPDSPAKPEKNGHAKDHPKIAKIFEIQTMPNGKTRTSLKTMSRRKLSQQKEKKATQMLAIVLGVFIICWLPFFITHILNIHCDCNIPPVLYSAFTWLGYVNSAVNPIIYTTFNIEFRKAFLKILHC
Method: (§3) The activation of the GIRK channels was measured electrophysiologically using whole cell voltage clamp recording (Kuzhikandathil et al., 2004, Mol. Cell. Neurosci. 26:144-155). The GIRK channel responses elicited with new ligands were compared to quinpirole, a classical full agonist of D2, D3 and D4 dopamine receptors. The adenylyl cyclase inhibition was determined using a commercially available ELISA assay (Westrich & Kuzhikandathil, 2007, Biochim. Biophys. Acta-Mol. Cell. Res. 1773:1747-1758).
In the first assay, whole cell voltage clamp recording is used to measure GIRK response to increasing concentrations of the lead compound (0.01 nM to 3,000 nM dose range). The EC50 values for each receptor subtype is determined by fitting the data points using the Hill equation.
as §1
(§4) Agonist-activated currents were measured by the whole-cell patch clamp technique in voltage clamp and current clamp mode as described previously (Kuzhikandathil & Oxford, 2000, J. Gen. Physiol. 115:697-706; Kuzhikandathil et al., 1998, Mol. Cell. Neurosci. 12:390-402; Kuzhikandathil & Bartoszyk, 2006, Neuropharm. 51:873-884; Westrich & Kuzhikandathil, 2007, Biochim. Biophys. Acta-MCR 1773:1747-1758; Kuzhikandathil et al., 2004, Mol. Cell. Neurosci. 26:144-155; Westrich et al., 2010, Biochem. Pharmacol. 79:897-907). Drug solutions were delivered to cells via a multi-barreled micropipette array. The current responses were normalized to the cell capacitance, to account for variation in cell size.
as §2

D3 dopamine receptor [2] = biological target: T1, D3 dopamine receptor; experiment: GIRK channel activation, whole cell voltage clamp, AtT-20 cells stably expressing D3; conditions: for specificity of agonist effect (eticlopride pretreatment / parental cells): D2/D3 antagonist eticlopride (100 nM); for GIRK channel activation: agonist type / pEC50: D3; for GIRK channel activation: agonist type: versus full agonist quinpirole; for pEC50: GIRK channel activation EC50, AtT-20 cells
Method: as §3, with “[…].” for “The GIRK channel responses elicited with new ligands were compared to quinpirole, a classical full agonist of D2, D3 and D4 dopamine receptors.”
. In the initial screen, the ability of 300 nM lead compound to activate G-protein coupled inward rectifier potassium (GIRK) channels (FIG. 1) is measured using whole cell voltage clamp recording. The protocol has been previously used for performing whole cell voltage clamp and measuring agonist-induced GIRK response. […]. The EC50 values for each receptor subtype is determined by fitting the data points using the Hill equation.
as §1, with “[…].” for “The generation and characterization of the AtT-20 cells stably expressing various human dopamine receptors have been previously reported (Kuzhikandathil & Oxford, 2000, J. Gen.”
as §4
To compare the functional effects of the new class of D3 receptor agonists, PBZI (Table 2) and ES609 (Table 3) were tested on AtT-20 cells stably expressing human D3, D2S, D2L or D4.2. […]. The EC50 values of PBZI and ES609 for inhibiting adenylyl cyclase and activating GIRK channels were in the range of 0.2 nM to 30 nM for D3 receptors. […]. […]

[3] = AtT-20 cells, D3, read-out: Adenylyl cyclase inhibition EC50
[4] = D3 receptors, range over both compounds and both assays, read-out: EC50 for inhibiting adenylyl cyclase and activating GIRK channels

Row | SMILES | pEC50 (D3 dopamine receptor [1]; [3]) | Adenylyl cyclase inhibition Ratio of ES609 to quinpirole response (at 300 nM) (D3 dopamine receptor [1]; D3, 300 nM) | Adenylyl cyclase inhibition: agonist type (D3 dopamine receptor [1]; D3) | Adenylyl cyclase inhibition: agonist type (D3 dopamine receptor [1]; D3, listed as ES0609) | pEC50 (D3 dopamine receptor [1]; [4]) | GIRK channel activation Ratio of ES609 to quinpirole response (at 300 nM) (D2L dopamine receptor; 300 nM) | GIRK channel activation: agonist type (D2L dopamine receptor) | GIRK channel activation: agonist type (D2L dopamine receptor; listed as ES0609) | specificity of agonist effect (eticlopride pretreatment / parental cells) (D3 dopamine receptor [2]) | GIRK channel activation Ratio of ES609 to quinpirole response (at 300 nM) (D3 dopamine receptor [2]; D3, 300 nM) | GIRK channel activation: agonist type (D3 dopamine receptor [2]) | GIRK channel activation: agonist type (D3 dopamine receptor [2]; listed as ES0609) | pEC50 (D3 dopamine receptor [2]) | Adenylyl cyclase inhibition Ratio of PBZI to quinpirole response (at 300 nM) (D3 dopamine receptor [1]; D3, 300 nM) | GIRK channel activation Ratio of PBZI to quinpirole response (at 300 nM) (D2L dopamine receptor; 300 nM) | GIRK channel activation Ratio of PBZI to quinpirole response (at 300 nM) (D3 dopamine receptor [2]; D3, 300 nM)
1 | CC(N)CCc1ccccc1Cl (centres unmarked) [ES609] | 9.82 | 0.71 | full agonists | Full | 7.52 to 9.70 | 0.32* | partial agonist | Partial | blocked by pretreatment with the antagonist, eticlopride | 0.86 | full agonist | Full | 7.52 | – | – | –
2 | CCCN1CC[C@@H]2c3cc(O)ccc3CC[C@@H]21 [PBZI, (3aS,9bR)-3-propyl-1,2,3a,4,5,9b-hexahydrobenzo[e]indol-8-ol] | 7.46 | – | full agonists and full | – | 7.52 to 9.70 | – | full agonist | – | specific for D3 receptors | – | full agonists and full | – | 7.52 and 7.54 | 0.97 | 0.75 | 1.3
